The values that follow come from publication PMC6222871, “Suppression of Hepatitis C Virus Genome Replication and Particle Production by a Novel Diacylglycerol Acyltransferases Inhibitor” (Molecules : A Journal of Synthetic Chemistry and Natural …, 2018).

Molecules are shown by their SMILES.

The subject of data set [1] is HCV genotype 2a (Huh7.5-J6/JFH1). The experiment in a line: microbe, parasite or virus in culture. Conditions: Hepatitis C virus, read-out: EC50 on HCV genome replication. An excerpt:
We previously synthesized and characterized twelve DGAT inhibitors with a different DGAT specificity. […] A922500, a commercially available DGAT-1-specific inhibitor was used as a positive control. In spite of a wealth of knowledge on an essential role of DGAT-1 in the HCV particle assembly and production, less attention has been paid to potential functions of DGATs in other steps of the viral life cycle. Therefore, we decided to examine effects of these twelve DGAT inhibitors on HCV particle production as well as RNA genome replication in parallel. For this purpose, we transfected Huh7.5 cells with in vitro-transcribed genotype 2a HCV RNAs (Huh7.5-J6/JFH1) and treated them with each DGAT inhibitor for 6 and 72 h at 10 μM. HCV genome replication as well as host GAPDH RNA levels was quantitated by a real-time RT-PCR analysis. For assessment of HCV particle production, we harvested and filtered the supernatant from Huh7.5-J6/JFH1 cells treated with DGAT inhibitors and incubated the supernatant with naïve huh7.5 cells for 72 h. Then, infectivity was measured by a real-time RT-PCR analysis.
Quantitative real-time RT-PCR analysis to measure levels of HCV RNA and GAPDH was conducted as previously described. The cDNA synthesis and reverse transcription of miR-122 were performed by using Taqman quantitative RT-PCR (qRT-PCR) analysis. Taqmanq RT-PCR components including TaqMan miR122 probe, endogenous control U6 probe, TaqMan® MicroRNA reverse transcription Kit and TaqMan® universal master mix II were purchased from Thermo Fisher Scientific (Waltham, MA, USA)
Huh7.5-J6/JFH-1 cells were seeded into 6-well plates at a density of 3 × 10^5 cells per well with DMEM containing 10% FBS. After 24 h, they are incubated with either DMSO, increasing concentrations of 10j for 3, 6, 12, 24, 48, and 72 h, or increasing concentrations of A922500 for 6, 12, 24, 48, and 72 h. Total RNAs were extracted from treated cells and virus-containing media were harvested at each time point. Naïve Huh7.5 cells were infected with these virus-containing media after concentration with centricons. Total RNAs were extracted from Huh7.5 cells infected with virus-containing media. qRT-PCR analysis was performed to measure effect of 10j on HCV replication and virus particle production.

Data set [2] has the same test system. The experiment in a line: HCV particle production: infectivity of supernatant on naive Huh7.5 cells by real-time RT-PCR. To be noted: Hepatitis C virus, read-out: EC50 on HCV particle production. Format: cell-based, hepatitis C virus. On the technique in general: Real-time PCR tracks product formation cycle by cycle.
Protocol: A922500, a commercially available DGAT-1-specific inhibitor was used as a positive control [10]. […] Therefore, we decided to examine effects of these twelve DGAT inhibitors on HCV particle production as well as RNA genome replication in parallel. For this purpose, we transfected Huh7.5 cells with in vitro-transcribed genotype 2a HCV RNAs (Huh7.5-J6/JFH1) [16] and treated them with each DGAT inhibitor for 6 and 72 h at 10 μM. HCV genome replication as well as host GAPDH RNA levels was quantitated by a real-time RT-PCR analysis. For assessment of HCV particle production, we harvested and filtered the supernatant from Huh7.5-J6/JFH1 cells treated with DGAT inhibitors and incubated the supernatant with naïve huh7.5 cells for 72 h. Then, infectivity was measured by a real-time RT-PCR analysis.
Huh7.5-J6/JFH-1 cells were seeded into 6-well plates at a density of 3 × 10^5 cells per well with DMEM containing 10% FBS. […] Total RNAs were extracted from treated cells and virus-containing media were harvested at each time point. Naïve Huh7.5 cells were infected with these virus-containing media after concentration with centricons.
Data set [3] concerns luciferase-linked genotype 2a HCV RNAs. As to the kind of experiment: microbe, parasite or virus in culture. The class given is cell-based, hepatitis C virus. Conditions: Hepatitis C virus, Huh7.5, luciferase-linked genotype 2a HCV RNA in Huh7.5 cells; read-out: EC50 (HCV replication). Here is the method: (§1) To order to study impacts of DGAT inhibitors on HCV genome replication independently of the particle production, we decided to examine effects of these twelve DGAT inhibitors on the levels of viral RNA genome and cell viability in parallel. […] Then, we treated them with an increasing concentration of each DGAT inhibitor. Then, luciferase and MTT-based cell viability assays were performed to determine EC50 and CC50 (cytotoxic concentration required to kill 50% of treated cells) values, respectively.
(§2) Cell viability was measured with EZ-CYTOX (10% tetrazolium salt; Dogen, Gyeonggi-do, Korea) as described previously. Anti-HCV replication analysis using a luciferase assay was conducted as previously described.

Data set [4] in a line: MTT-based cell viability assay (EZ-CYTOX). Conditions: human. How it is done: as §1, §2
The subject of data set [5] is Huh7.5 cells. The experiment in a line: TG quantification assay in Huh7.5 cells. The class given is cell-based. To be noted: 20 μM. Here is the method:
Cells were washed with cold PBS, suspended, and homogenized in 1 mL of 5% NP-40/ddH2O solution. Then, homogenized cells were slowly heated to 90 °C for 5 min or until the NP-40 becomes cloudy, then cooled down to room temperature. Previous step was repeated to solubilize all TG. Cells were centrifuged for 2 min at top speed using a microcentrifuge to remove any insoluble material. Samples were diluted 10-fold with ddH2O before proceeding with the assay. […] Samples were added with 50 μL of reaction mix into each well and incubated at room temperature for 60 min while protected from light. Fluorescence was measured by using a fluorometric reader with Ex/Em = 535/590 nm. The amount of TG from standard sample was calculated using the following equation: Ts=Corrected absorbance−(y−intercept)/slope The amount of intracellular TG was calculated using the following equation: Concentration=Ts/Sv*D where the Ts is the amount of TG from standard curve and Sv is the volume of sample added to sample wells and D is the sample dilution factor.

The subject of data set [6] is Huh7.5 cells. The experiment in a line: visualization of intracellular LD by BODIPY in Huh7.5 cells. The class given is cell-based. To be noted: 20 μM, 72 h. How it is done:
Huh7.5 cells were incubated in a 24-well plate on top of coverslip in the presence of either DMSO, 8 μM of 10j, or 20 μM of A922500 for 72 h. Then, Huh7.5 cells were fixed by using 4% paraformaldehyde for 15 min and stained with 0.001% BODIPY 493/503 D3922 (Invitrogen, Carlsbad, CA, USA) for 10 min. The coverslips were mounted onto slides using Prolong Gold anti-fade reagent with DAPI (Invitrogen, Carlsbad, CA, USA) Fluorescence were examined and captured by Nikon confocal laser scanning microscopic system. LD content was quantified using the ImageJ program.

The next data set relates to JFH1-NS5A-GFP cells. The experiment in a line: NS5A-GFP and Oil Red O imaging in JFH1-NS5A-GFP cells. Format: cell-based, hepatitis C virus. Here is the method: Based on previous results, we noticed that EC50 values required for inhibition of the HCV genome replication by 10j were around 1–2 μM ranges (Figure 2 and Table 3). However, IC50 value required for inhibition of the enzymatic DGAT activities in vitro by 10j was reported to be higher than 5 μM (Table 2 and Figure 6E). Based on these observations, we hypothesized that inhibition of DGATs by 10j may not play a direct role in suppression of the viral genome replication. To test this hypothesis, we decided to study effects of 10j on DGAT and the viral genome replication in a simultaneous manner. […] Then, the viral NS3 protein and LDs were visualized by using an anti-NS3 antibody and BODIPY, respectively. […] Significant reduction of LD was only seen after treatment of 10j higher than 5 μM. In order to confirm this observation, we decided to utilize another HCV-positive cell—JFH1-NS5A-GFP cells—which were infected with infectious HCV genotype 2a particles with a visually tractable NS5A due to the presence of in-frame-fused GFP protein with NS5A. TGs of these cells were stained with ORO for visualization in parallel. […]
Immunofluorescence analysis of Huh7.5-J6/JFH1 or Huh7.5-JFH1-5A-GFP cells in the presence of 10j was conducted as previously described. Fluorescence were examined and captured by Nikon confocal laser scanning microscopic system. LD content was quantified using the ImageJ program.

In another data set the test system is recombinant DGAT-1. Also on record: method as in PMID 23242135. Conditions: recombinant DGAT-1, [14C] oleoyl-CoA as acyl-donor; cited from earlier work.
The subject of another data set is HCV. Further details: method as in PMID 27788579. To be noted: read-out: EC50 in vitro; cited from earlier work.

`O=C(Nc1ccccc1)Nc1ccc(-c2ccc(C(=O)[C@@H]3CCC[C@H]3C(=O)O)cc2)cc1` [A922500, reference compound]: the EC50 (as a rule, the concentration at which the effect is half-maximal) in data set [1] (6 h) was over 100 µM; in data set [1] (12 h), over 100 µM; in data set [1] (24 h), over 100 µM; in data set [1] (48 h) it was over 100 µM; in data set [1] (72 h) it was over 100 µM; in data set [2] (Huh7.5, 6 h), 34.3 µM. The concentration for a half-maximal effect (EC50) in data set [2] (Huh7.5, 12 h) is 76.6 µM; in data set [2] (Huh7.5, 24 h), 68.6 µM; in data set [2] (Huh7.5, 48 h), 42.2 µM; in [2] (Huh7.5, 72 h), 22 µM; in data set [3], 50.8 µM. The half-maximal cytotoxic concentration (CC50) – broadly, the concentration giving 50% cytotoxicity – in [4] worked out at 71.9 µM. Also, the “suppression of endogenous level of TG” value with Huh7.5 cells [5] is 25%. In the data set with Huh7.5 cells [6], the “increase in the level of LDs (BODIPY)” value is listed as 45%. In addition, the “abundance of GFP-tagged NS5A proteins or ORO-stained LDs” value in the data set with JFH1-NS5A-GFP cells was “failed to induce any significant changes”. For the same compound, the half-inhibitory concentration (IC50) – broadly, the concentration that inhibits the measured activity by half – with recombinant DGAT-1 is 0.007 µM.
Consider `O=C(O)C[C@H]1CC[C@H](c2ccc(-c3ccc(Nc4ccc(C(F)(F)F)nc4)cn3)cc2)CC1` [pradigastat], for which the half-maximal effective concentration (EC50) in the data set with HCV was 30 µM.
